The results in this text go back to patent publication US20250144067A1, “PERSONALIZED STARVATION THERAPY FOR CANCER” (Faeth Therapeutics, Inc., priority 2021, published 2025).

Where a name gives a salt, the structure may show the parent alone.

In one assay the test system is HCC827 cells. The experiment in a line: Drug validation, four media conditions. In kind it is cell-based, human. The note with it: cholesterol-free and cholesterol-free+simvastatin media conditions. The procedure:
(§1) A series of experiments were designed to assess the effect of cholesterol depletion and statin treatment on the anti-cancer effect of drugs identified in the FDA drug screens. Cancer cells were grown in media containing cholesterol and cholesterol-free media in the presence or absence of simvastatin. The effect of the drug identified in the FDA drug screens on cancer cell growth was measured.
(§2) […]. Medium 1 was ‘complete medium’ containing all essential nutrients, including cholesterol. Medium 2 was cholesterol-free medium. Medium 3 was cholesterol-free medium supplemented with simvastatin 40 nM. Medium 4 was ‘complete medium’ containing all essential nutrients, including cholesterol, supplemented with simvastatin at the IC30 concentration for each cell line.
(§3) On Day 5, cell growth was measured by absorbance or fluorescence. For absorbance growth measurements, spent media was discarded, and wells were stained with a crystal violet staining solution, washed, and dried. 100 μL of 10% acetic acid was added to each well to release the crystal violet taken up by the cells. Plates were read using a Biotek Powerwave plate reader to determine the absorbance of the crystal violet released as an indicator of cell growth at a wavelength of 595 nm. For fluorescence growth measurements, 100 μL of a resazurin solution was added to each well and the plate incubated at 37° C. for four hours. Plates were read using a Biotek Powerwave plate reader to determine the fluorescence of reosurfin as an indicator of cell growth at a wavelength of 590 nm.
(§4) Growth curves showing absorbance of crystal violet at 595 nm or fluorescene of reosurfin at 590 nm were plotted from test wells against the logarithmic concentration of the validation drug. FIG. 9A-9C show growth of cancer cell lines in the four media conditions subjected to increasing doses of neticonazole. FIG. 10A-10D show growth of cancer cell lines in the four media conditions subjected to increasing doses of cepharanthine. FIG. 11A-11B show growth of cancer cell lines in the four media conditions subjected to increasing doses of alverine citrate. FIG. 12A-12B show growth of cancer cell lines in the four media conditions subjected to increasing doses of berbamine. FIG. 13A-13C show growth of cancer cell lines in the four media conditions subjected to increasing doses of pitolisant. FIG. 14A-14G show growth of cancer cell lines in the four media conditions subjected to increasing doses of avapritinib. FIG. 15A-15D show growth of cancer cell lines in the four media conditions subjected to increasing doses of toremifene. FIG. 16A-16C show growth of cancer cell lines in the four media conditions subjected to increasing doses of isavuconazole.

The test system of the next assay is PSN1 cells. The experiment in a line: Drug validation, four media conditions. It is filed as cell-based, human. The note with it: for anti-proliferative effect (dose-response curve shift): cholesterol-free medium+simvastatin compared to the other media conditions. As to the method: as §1, §2, §3, §4
For the next assay, the system named is SW480 cells. Nature of the assay: Drug validation, four media conditions. In kind it is cell-based, human. As to the method:
as §1, §2, §3, §4

Assay [1] has as its system H292 cells. The experiment in a line: Drug validation in H292 cells, three media conditions. It is filed as cell-based, human. The settings on record: cholesterol-free medium + simvastatin 40 nM vs complete and cholesterol-free medium. The procedure:
as §1
On Day 1, cells were seeded at a density of around 7500 cells/well in a Corning 96-well flat bottom culture plate in complete media containing 10% FBS.
On Day 5, spent media was discarded, and wells were stained with a crystal violet staining solution, washed and dried. 100 μL of 10% acetic acid was added to each well to release the crystal violet taken up by the cells. Plates were read using a Biotek Powerwave plate reader to determine the absorbance of the crystal violet released as an indicator of cell growth at a wavelength of 595 nm.
Growth curves showing absorbance of crystal violet at 595 nm were plotted from test wells against the logarithmic concentration of the validation drug. FIG. 7A-7C show growth of cancer cell lines in the three media conditions subjected to increasing doses of isavuconazole (FIG. 7A), pitolisant (FIG. 7B), or toremifene (FIG. 7C) from the FDA screen under validation. For each of the drugs being validated, there is a strong ‘left-shift’ in the dose response curve for cells are grown in the cholesterol-free medium+simvastatin.

The subject of another assay is PC9 cells. The experiment in a line: Drug validation, four media conditions. The note with it: cholesterol-free medium+simvastatin compared to the other media conditions. It is filed as cell-based, human. The procedure: as §1, §2, §3, §4
Assay [2] concerns H292 cells. The experiment in a line: Drug validation, four media conditions. It is filed as cell-based, human. The note with it: cholesterol-free medium+simvastatin compared to the other media conditions. The procedure:
as §1, §2, §3, §4

Assay [3] has as its system NCI-H292 lung cancer cells. Nature of the assay: FDA drug screening, complete media vs cholesterol-free media with simvastatin (TABLE 2). In kind it is cell-based, human. The note with it: for Cholesterol-free media + simvastatin (0.04 μM) / Complete Media: NCI-H292 cells, FDA drug library screen; for Cholesterol-free media + simvastatin (0.04 μM): cholesterol-free media with simvastatin 0.04 μM; for Difference: complete media minus cholesterol-free media + simvastatin, >0 enhanced anti-cancer activity, about 0 neutral, <0 antagonist.

The test system of assay [4] is NCI-H292 lung cancer cells. The experiment in a line: FDA drug screening, complete media vs cholesterol-free media without statin (TABLE 1). It is filed as cell-based, human. The note with it: for Difference: about 0 neutral.
The subject of assay [5] is NCI-H292 mucoepidermoid lung cancer tumour. Nature of the assay: Anti-tumour activity with low cholesterol diet in NCI-H292 tumour bearing mice. It is filed as in vivo, BALB/c nude mice. The note with it: Low Chol Diet + atorvastatin 30 mg/kg daily oral gavage vs Low Chol Diet + vehicle. An excerpt: (§5) A series of in vivo experiments were designed to assess the effect of cholesterol depletion on cancer cell growth. The added role of statin treatment and additional therapeutic agents was studied by dosing mice and assessing tumor growth over a defined time period.
Immunodeficient BALB/c nude mice were subcutaneously injected with human mucoepidermoid lung cancer NCI-H292 cells to initiate tumor development and randomly assigned into one of three experimental groups (n=6 per group): normal cholesterol diet “Normal Chol Diet” containing 0.2% dietary cholesterol without atorvastatin; low cholesterol diet “Low Chol Diet” containing less than 0.05% dietary cholesterol without atorvastatin; or Low Chol Diet treated with atorvastatin at 30 mg/kg by oral gavage. Once the tumor volume reached ˜150 mm^3, experimental diets were commenced. Atorvastatin or vehicle treatment was initiated four days after the diet change and continued daily until the tumor volume exceeded 2000 mm^3 or the time end-point of three weeks after diet commencement was reached. Throughout the course of the study, tumor volume was measured twice per week.

A further assay deals with SW480 colorectal tumour. Nature of the assay: Anti-tumour activity with low cholesterol diet in SW480 tumour bearing mice. It is filed as in vivo, M-NSG mice.
Excerpt: as §5
Immunodeficient M-NSG (NOD-Prkdc^scid Il2rgem1Smoc) mice were subcutaneously injected with human colorectal cancer SW480 cells and matrigel to initiate tumor development and randomly assigned into one of four experimental groups (n=6 per group): normal cholesterol diet “Normal Chol Diet” containing 0.2% dietary cholesterol and vehicle, low cholesterol diet “Low Chol Diet” containing less than 0.05% dietary cholesterol and vehicle, Low Chol Diet treated with atorvastatin at 15 mg/kg, or Low Chol Diet treated with toremifene at 2 mg/kg. Once the tumor volume reached ˜150 mm^3, experimental diets were commenced. Atorvastatin, vehicle, or toremifene treatment by oral gavage was initiated four days after the diet change and continued daily until the tumor volume exceeded 2000 mm^3 or the time end-point of three weeks after treatment initiation was reached. Throughout the course of the study, tumor volume was measured twice per week.

For the next assay, the system named is PC9 lung cancer tumors. Nature of the assay: Anti-tumour activity with low cholesterol diet in PC9 bearing mice. In kind it is in vivo, C.B-17 SCID mice. The note with it: Low Chol Diet + toremifene 2 mg/kg with simvastatin 10 mg/kg, daily oral gavage, compared to simvastatin 20 mg/kg.
Excerpt: as §5
Immunodeficient C.B-17 SCID (C.B-Igh-1^b/IcrTac-Prkdc^scid) mice were subcutaneously injected with human lung cancer PC9 cells to initiate tumor development and randomly assigned into one of three experimental groups (n=6 per group): “Low Chol Diet” containing less than 0.05% dietary cholesterol and vehicle, Low Chol Diet and simvastatin 20 mg/kg, and Low Chol Diet and simvastatin 10 mg/kg in combination with toremifene 2 mg/kg. Once the tumor volume reached ˜200 mm^3, treatment was commenced with vehicle, simvastatin, and toremifene administered daily by oral gavage. Treatment continued for 28 days or until the tumor volume exceeded 2000 mm^3. Throughout the course of the study, tumor volume was measured twice per week.

For another assay, the system named is cancer cell lines. Nature of the assay: Drug validation in multiple cancer cell lines, four media conditions. In kind it is cell-based, human. As to the method: as §1
[…]. Medium 1 was ‘complete medium’ containing all essential nutrients, including cholesterol. Medium 2 was cholesterol-free medium. Medium 3 was cholesterol-free medium supplemented with simvastatin 40 nM. […]
as §3, with “and dried. […] Plates were” for “and dried. 100 μL of 10% acetic acid was added to each well to release the crystal violet taken up by the cells. Plates were”, “590 nm. […]” for “590 nm.”

Another assay relates to PATU8901 cells. Nature of the assay: Drug validation, four media conditions. In kind it is cell-based, human. The settings on record: cholesterol-free media with simvastatin. The procedure:
as §1, §2, §3, §4

Where [6] appears, read: cholesterol-free and cholesterol-free+simvastatin media conditions.

For the molecule `Clc1ccc(CCCOCCCN2CCCCC2)cc1` [pitolisant], the “activity (dose-response curve shift) with lack of cholesterol” value with HCC827 cells, in the assay on PSN1 cells (setting [6]) and with SW480 cells (setting [6]) was “enhanced” each time. In addition, the “anti-proliferative effect of the drug (dose response curve shift)” value with H292 cells [1] is reported as “strongly enhanced”.
Turning to `C[C@@H](c1nc(-c2ccc(C#N)cc2)cs1)[C@](O)(Cn1cncn1)c1cc(F)ccc1F` [isavuconazole, reference compound], the “anti-proliferative effect (dose-response curve shift)” value with PC9 cells and in the assay with H292 cells [2] was “strong left-shift” in each case. Further, in the assay on PSN1 cells (cholesterol-free medium+simvastatin relative to the other three media conditions), the “basal viability of treated cells” value was “decreased basal viability”. For the same molecule, the “Cholesterol-free media + simvastatin (0.04 μM)” value in assay [3] came out at 0.5246. Moreover, the “Complete Media” value in assay [3] was determined as 0.9256. Further, the Difference is given as 0.40 in [3] and −0.83 in assay [4] (Complete minus Cholesterol-free, greater than 0 enhanced anti-cancer activity, below 0 antagonists). Further, in the assay on H292 cells [1], the “anti-proliferative effect of the drug (dose response curve shift)” value is on record as “strongly enhanced”. Also, the Cholesterol-free in assay [4] (NCI-H292 cells in cholesterol-free media without statin) is reported as 1.746. This molecule registered a Complete in assay [4] (NCI-H292 cells in complete media) of 0.9126.
As for `CC(C)c1c(C(=O)Nc2ccccc2)c(-c2ccccc2)c(-c2ccc(F)cc2)n1CC[C@@H](O)C[C@@H](O)CC(=O)O` [atorvastatin, reference compound], the tumor growth suppression result in assay [5] is recorded as “enhanced the tumor growth suppression”. In assay [3] (listed as Atorvastatin), the “Cholesterol-free media + simvastatin (0.04 μM)” value was found to be 0.6169, the “Complete Media” value was 0.8658 and the Difference worked out at 0.25. Moreover, the tumor growth suppression entry in the assay with SW480 colorectal tumour (Low Chol Diet + atorvastatin 15 mg/kg daily oral gavage vs Low Chol Diet + vehicle) is “enhanced”. Further, the Difference in assay [4] (Complete minus Cholesterol-free, >0 enhanced anti-cancer activity, <0 antagonist) stood at 0.03. Also, the Cholesterol-free in assay [4] (NCI-H292 cells, cholesterol-free media without statin, FDA drug library screen) worked out at 0.8356. In [4] (NCI-H292 cells, complete media, FDA drug library screen), the Complete stood at 0.8623.
With `CCCCCOc1ccccc1/C(=C\SC)n1ccnc1` [neticonazole, reference compound], the “anti-proliferative effect (dose-response curve shift)” value in the assay on PC9 cells, with H292 cells [2] and in the assay on PSN1 cells was “strongly enhanced” each time. In addition, the “Complete Media” value in assay [3] (listed as Neticonazole) is on record as 1.262. Moreover, the Difference is given as 0.90 in assay [3] (listed as Neticonazole) and −0.16 in assay [4] (Complete minus Cholesterol-free, greater than 0 enhanced anti-cancer activity, below 0 antagonist). The Cholesterol-free in [4] (NCI-H292 cells, FDA drug library screen, cholesterol-free media without statin) is 0.9493. For the same molecule, the Complete in assay [4] (NCI-H292 cells, FDA drug library screen, complete media) came to 0.7904.
As for `CN(C)CCOc1ccc(/C(=C(/CCCl)c2ccccc2)c2ccccc2)cc1` [toremifene], the tumor growth suppression result is given as “enhanced the tumor growth suppression” with PC9 lung cancer tumors and “enhanced” in the assay on SW480 colorectal tumour (Low Chol Diet + toremifene 2 mg/kg daily oral gavage vs Low Chol Diet + vehicle). For the same molecule, in the assay on H292 cells [1], the “anti-proliferative effect of the drug (dose response curve shift)” value is listed as “strongly enhanced”. Further, in the assay with SW480 colorectal tumour (Low Chol Diet + toremifene 2 mg/kg), the “tumor growth suppression, rank among the four conditions” value is “highest”. For the same molecule, the “anti-proliferative activity (dose-response curve shift)” value in the assay on cancer cell lines (cholesterol-free+simvastatin medium compared to the other three media conditions) is on record as “strong left-shift”.
With `CCN(CCCc1ccccc1)CCCc1ccccc1` [alverine citrate], the “anti-proliferative effect (dose-response curve shift)” value with H292 cells [2] and with SW480 cells (cholesterol-free medium+simvastatin compared to the other media conditions) was “enhanced” each time.
With `Cn1cc(-c2cc3c(N4CCN(c5ncc([C@@](C)(N)c6ccc(F)cc6)cn5)CC4)ncnn3c2)cn1` [avapritinib, reference compound], the “anti-proliferative effect (dose-response curve shift)” value with H292 cells [2], in the assay with PSN1 cells and in the assay on PATU8901 cells was “strong left-shift” in each case. Further, the “Cholesterol-free media + simvastatin (0.04 μM)” value in assay [3] is 0.4436. For the same molecule, the “Complete Media” value in assay [3] was 0.749. Also, the Difference is 0.31 in assay [3] and −0.33 in assay [4] (complete vs cholesterol-free media, greater than 0 enhanced anti-cancer activity, below 0 antagonists). The Cholesterol-free in [4] (NCI-H292 cells, cholesterol-free media without statin) was 0.9337. Besides, in assay [4] (NCI-H292 cells, complete media), the Complete is on record as 0.6002. Besides, in the assay with cancer cell lines (cholesterol-free media compared to complete media), the “anti-proliferative effect (dose-response curve shift) with lack of cholesterol” value was “enhanced”.
